Measured values published in BindingDB's records for doi:10.1016/s0968-0896(00)00026-2 (Alcon Research, 2000).
Where a name gives a salt, the structure may show the parent alone.

Biological target: Carbonic anhydrase 2 (Homo sapiens, UniProt P00918)
Experiment: In vitro binding of inhibitor to hCA-II
Procedure: Inhibitor binding to CA II was determined using a fluorescence competition assay. Displacement of dansylamide and binding of the inhibitor was determined by measuring and comparing the average fluorescence intensities of the treated versus control reactions. Binding constants were estimated from a Dixon plot of the data (reciprocal of the average fluorescence intensity versus inhibitor concentration)

Ki [pM] | Ki (pH 7.4, 37 °C) [pM] | SMILES
– | 80 | COCCCN(CCOC)CC1=Cc2cc(S(N)(=O)=O)sc2S(=O)(=O)N1C [3-{[(2-methoxyethyl)(3-methoxypropyl)amino]methyl}-2-methyl-1,1-dioxo-2H-1,7,2-thieno[3,2-e][1,2]thiazine-6-sulfonamide hydrochloride]
150 | – | CCCN1C(CN(CCOC)CCOC)=Cc2cc(S(N)(=O)=O)sc2S1(=O)=O [3-{[bis(2-methoxyethyl)amino]methyl}-1,1-dioxo-2-propyl-2H-1,7,2-thieno[3,2-e][1,2]thiazine-6-sulfonamide hydrochloride]
– | 320 | NS(=O)(=O)c1cc2c(s1)S(=O)(=O)N(CCN1CCOCC1)C=C2 [Compound 5b]
– | 250 | CC(=O)N1CCN(CCN2C=Cc3cc(S(N)(=O)=O)sc3S2(=O)=O)CC1 [Compound 5c]
– | 100 | C=CCN(CCOC)CC1=Cc2cc(S(N)(=O)=O)sc2S(=O)(=O)N1C [Compound 17a7]
330 | – | CCN1C(CN(CCO)CCO)=Cc2cc(S(N)(=O)=O)sc2S1(=O)=O [Compound 17b4]
270 | – | CCCN1C(CN2CCOCC2)=Cc2cc(S(N)(=O)=O)sc2S1(=O)=O [Compound 17c1]
330 | – | CC(C)N1C(CN2CCOCC2)=Cc2cc(S(N)(=O)=O)sc2S1(=O)=O [Compound 17d1]
470 | – | C#CCNCC1=Cc2cc(S(N)(=O)=O)sc2S(=O)(=O)N1C(C)C [Compound 17d8]
310 | – | NS(=O)(=O)c1cc2c(s1)S(=O)(=O)N(C1CCCCC1)C(CN1CCOCC1)=C2 [Compound 17g1]
220 | – | COCCN1C(CN2CCOCC2)=Cc2cc(S(N)(=O)=O)sc2S1(=O)=O [Compound 17h1]
210 | – | COCCN(CCOC)CC1=Cc2cc(S(N)(=O)=O)sc2S(=O)(=O)N1CCOC [Compound 17h2]
250 | – | COCCCN1C(CN2CCOCC2)=Cc2cc(S(N)(=O)=O)sc2S1(=O)=O [Compound 17i1]
120 | – | COCCCN1C(Cn2ccnc2)=Cc2cc(S(N)(=O)=O)sc2S1(=O)=O [Compound 17i10]
110 | – | COc1ccc(CN2C(CN3CCOCC3)=Cc3cc(S(N)(=O)=O)sc3S2(=O)=O)cc1 [Compound 17j1]
80 | – | COc1ccc(N2C(CN3CCOCC3)=Cc3cc(S(N)(=O)=O)sc3S2(=O)=O)cc1OC [Compound 17m1]
120 | – | NS(=O)(=O)c1cc2c(s1)S(=O)(=O)N(c1ccc(N3CCOCC3)cc1)C(CN1CCOCC1)=C2 [Compound 17n1]
200 | – | NS(=O)(=O)c1cc2c(s1)S(=O)(=O)N(CCCO)C(CN1CCOCC1)=C2 [Compound 17o1]
210 | – | CN1C(CN2CCOCC2)=Cc2sc(S(N)(=O)=O)cc2S1(=O)=O [Compound 25]

The next lines start with the compound.

SMILES | Ki [pM] | Ki (pH 7.4, 37 °C) [pM]
C#CCNCC1=Cc2cc(S(N)(=O)=O)sc2S(=O)(=O)N1CCC [1,1-dioxo-3-[(prop-2-yn-1-ylamino)methyl]-2-propyl-2H-1,7,2-thieno[3,2-e][1,2]thiazine-6-sulfonamide] | 100 | –
COc1cccc(N2C(CN3CCOCC3)=Cc3cc(S(N)(=O)=O)sc3S2(=O)=O)c1 [2-(3-Methoxyphenyl)-3-[(4-morpholinyl)methyl]-2H-thieno-[3,2-e]-1,2-thiazine-6-sulfonamide 1,1-dioxide] | – | 150
C#CCNCC1=Cc2cc(S(N)(=O)=O)sc2S(=O)(=O)N1c1cccc(O)c1 [2-(3-hydroxyphenyl)-1,1-dioxo-3-[(prop-2-yn-1-ylamino)methyl]-2H-1,7,2-thieno[3,2-e][1,2]thiazine-6-sulfonamide hydrochloride] | 160 | –
NS(=O)(=O)c1cc2c(s1)S(=O)(=O)N(CC1CC1)C(CN1CCOCC1)=C2 [2-(cyclopropylmethyl)-3-(morpholin-4-ylmethyl)-1,1-dioxo-2H-1,7,2-thieno[3,2-e][1,2]thiazine-6-sulfonamide hydrochloride] | 300 | –
CCN1C(CN2CCOCC2)=Cc2cc(S(N)(=O)=O)sc2S1(=O)=O [2-Ethyl-3-[(4-morpholinyl)methyl]-2H-thieno[3,2-e]-1,2-thiazine-6-sulfonamide 1,1-dioxide hydrochloride] | – | 210
CCN1C(CN(CCOC)CCOC)=Cc2cc(S(N)(=O)=O)sc2S1(=O)=O [2-Ethyl-3-[[bis(2-methoxyethyl)amino]methyl]-2H-thieno-[3,2-e]-1,2-thiazine-6-sulfonamide 1,1-dioxide hydrochloride] | – | 210
CCCNCCN1C=Cc2cc(S(N)(=O)=O)sc2S1(=O)=O [2-[2-(Propylamino)ethyl]-2H-thieno[3,2-e]-1,2-thiazine-6-sulfonamide 1,1-dioxide hydrochloride] | – | 520
NS(=O)(=O)c1cc2c(s1)S(=O)(=O)N(C/C=C/CN1CCOCC1)C=C2 [2-[(2E)-4-(morpholin-4-yl)but-2-en-1-yl]-1,1-dioxo-2H-1,7,2-thieno[3,2-e][1,2]thiazine-6-sulfonamide hydrochloride] | – | 240
CN1C(CN2CCOCC2)=Cc2cc(S(N)(=O)=O)sc2S1(=O)=O [2-methyl-3-(morpholin-4-ylmethyl)-1,1-dioxo-2H-1,7,2-thieno[3,2-e][1,2]thiazine-6-sulfonamide hydrochloride] | – | 260
COCCN(CCOC)CCN1C=Cc2cc(S(N)(=O)=O)sc2S1(=O)=O [2-{2-[bis(2-methoxyethyl)amino]ethyl}-1,1-dioxo-2H-1,7,2-thieno[3,2-e][1,2]thiazine-6-sulfonamide hydrochloride] | – | 340
C=CCN1C(CN2CCOCC2)=Cc2cc(S(N)(=O)=O)sc2S1(=O)=O [3-(morpholin-4-ylmethyl)-1,1-dioxo-2-(prop-2-en-1-yl)-2H-1,7,2-thieno[3,2-e][1,2]thiazine-6-sulfonamide] | 160 | –
COCCCN1C(CNC2CC2)=Cc2cc(S(N)(=O)=O)sc2S1(=O)=O [3-[(cyclopropylamino)methyl]-2-(3-methoxypropyl)-1,1-dioxo-2H-1,7,2-thieno[3,2-e][1,2]thiazine-6-sulfonamide hydrochloride] | 260 | –
COCCN(C)CC1=Cc2cc(S(N)(=O)=O)sc2S(=O)(=O)N1C [3-[N-(2-Methoxyethyl)-N-methylamino]methyl]-2-methyl-2H-thieno[3,2-e]-1,2-thiazine-6-sulfonamide 1,1-dioxide] | – | 150
COc1cccc(N2C(CNCCO)=Cc3cc(S(N)(=O)=O)sc3S2(=O)=O)c1 [3-{[(2-hydroxyethyl)amino]methyl}-2-(3-methoxyphenyl)-1,1-dioxo-2H-1,7,2-thieno[3,2-e][1,2]thiazine-6-sulfonamide hydrochloride] | 110 | –
